Test results: patent US12514806B2, “Cosmetic composition comprising ceramides and sphingolipid” (Croda Korea Ltd, priority 2022, dated 2026)

How the values were obtained:
Format in all cases: cell-based
filaggrin = assay: Filaggrin expression in 3D skin model by immunofluorescence; details: Experimental Example 4; creams including 0.01% and 0.1% of EOP on 3D skin model; compared to control; concentration-dependent; FIGS. 11-12
Protocol: (§1) To verify the difference in skin moisturizing according to a ceramide content ratio, each of the creams of Examples 1 to 16 was applied to 3D skin model (EPI-201) manufactured by MatTek, and then the expression of aquaporin 3 and filaggrin was examined.
(§2) Aquaporin 3 expression and filaggrin expression were analyzed by immunofluorescence. Specifically, after the 3D skin model was treated with each of the creams of Examples 1 to 16, the 3D skin model was incubated for 48 hours, and then each cream was washed out with PBS. The 3D skin model was put into a cassette and fixed with 10% formalin, and then made into a paraffin block through dehydration, transparency, penetration, and embedding processes. For deparaffinization, slides were prepared by sectioning to 3 μm, and then paraffin was melted in a dry oven at 60° C. for 30 minutes. […] After DAPI mounting, the slides were observed using a fluorescence microscope, and the results thereof are illustrated in FIGS. 1 to 4. […]
(§3) The moisturizing and barrier factors were analyzed by immunofluorescence in the same manner as in Experimental Example 1, and the results thereof are illustrated in FIGS. 11 and 12. […]
(§4) The moisturizing factors were analyzed by immunofluorescence in the same manner as in Experimental Example 1, and the results thereof are illustrated in FIGS. 15 to 18.

ceramide = assay: Amount of ceramide in 3D skin model by immunofluorescence; details: Experimental Example 4; creams including 0.01% and 0.1% of EOP on 3D skin model; compared to control; FIGS. 11-12
Protocol: as §2, with “minutes. Then, the slides were treated with xylene for 15 minutes, 100% ethanol for 5 minutes, 95% ethanol for 5 minutes, and 70% ethanol for 5 minutes, and washed with tap water. Antigen retrieval was carried out by boiling for 10 minutes in citrate buffer in a cooker, followed by cooling in running water. After treatment with 0.5% Triton X-100 for 15 minutes, the slides were washed three times with PBS buffer for 5 minutes.” for “minutes.”
The moisturizing and barrier factors were analyzed by immunofluorescence in the same manner as in Experimental Example 1, and the results thereof are illustrated in FIGS. 11 and 12.

aquaporin 3 = assay: Aquaporin 3 expression in 3D skin model by immunofluorescence; details: Experimental Example 4; creams including 0.01% and 0.1% of EOP on 3D skin model; compared to control; concentration-dependent; FIGS. 11-12
Protocol: as §1, §2, §3, §4

ceramide EOP
increased: amount of filaggrin (filaggrin) | amount of ceramide (ceramide) | amount of aquaporin 3 (aquaporin 3)
